From patent publication US20090048291A1, “Novel Piperidine-4-Acetic Acid Derivatives and Their Use” (Euroscreen S.A., priority 2007, published 2009)
Like-named read-outs stand apart in the source and are kept apart here.

Columns and labels:
CCR5 receptor [1] = molecular target: T1, CCR5 receptor (Homo sapiens, UniProt P51681); assay: Calcium flux aequorin-based assay (agonist response); type: cell-based; set-up: expressed in transfected cells; host or cells: Chinese hamster ovary cells coexpressing apoaequorin and Gα16; details: for EC50: Chinese hamster ovary cells expressing the CCR5 receptor, apoaequorin and Gα16, read-out: Aequorin/Ca++ assay EC50
Procedure: The aequorin assay uses the responsiveness of aequorin to intracellular calcium release induced by the activation of G Protein Coupled Receptors (Stables et al., 1997, Anal. Biochem. 252:115-126; Detheux et al., 2000, J. Exp. Med., 192 1501-1508). Briefly, Chinese hamster ovary cells expressing the CCR5 receptor are transfected to coexpress apoaequorin and Gα16. Cells are incubated with 5 μM Coelenterazine H (Promega) overnight at room temperature, and resuspended at a concentration of 0.1×10^6 cells/ml. Cells are then mixed with test agonist compounds and light emission by the aequorin is recorded with a luminometer (PDSS 6000-Hamamatsu) for 30 sec. Results are expressed as Relative Light Units (RLU). Controls include cells not expressing CCR5 in order to exclude possible non-specific effects of the test compound.
An agonist response is defined as an increase of light emission by aequorin corresponding to 10% or more of the light emitted by a reference sample of cells expressing CCR5 and treated with a the reference agonist ligand MIP-1β. The results of the tested compounds are reported as the concentration of compound required to reach 50% (EC50) of the maximum level of light emission induced by these compounds.

[2] = tested on: recombinant and non-replicative HIV virus coding for the firefly luciferase; assay: Inhibitory effect on HIV infection to MAGI-CCR5 cells (HIV-luciferase assay); type: cell-based
Procedure: The inhibitory activity of the compounds of the invention on HIV infection is measured on the human MAGI R5 recombinant cell line coexpressing the human CCR5 receptor and CD4 at their extracellular membrane. MAGI R5 cells are plated in black view plates at 10,000 cells/well and incubated with the appropriate concentrations of the compounds of the invention during 1 hour. This is followed by a 24 hours infection period with the recombinant and non-replicative HIV virus coding for the firefly luciferase (Bona et al., 2006, Antimicrob. Agents Chemother. 50: 3407-3417). The inhibitory effect of the tested compound on virus entry in MAGI R5 cells is measured by a reduction of luciferase signal (TopCount-NXT reader (Packard) and detection luciferase kit: Steadylite HTS assay kit (Perkin Elmer)) in the presence of the compound of the invention relative to the maximum signal obtained from cells infected with the virus without any added compound. The results of the tested compounds are reported as the concentration of compound required to inhibit 50% (IC50) of the maximum luciferase signal.

CCR5 receptor [3] = molecular target: T1, CCR5 receptor; assay: 125I-MIP-1β binding competition assay; set-up: expressed in transfected cells; host or cells: Chinese hamster ovary recombinant cells (membranes)
Procedure: The ability of the compounds of the invention to inhibit the binding of […] was assessed by an in vitro radioligand binding assay. Membranes were prepared from Chinese hamster ovary recombinant cells which express the human CCR5 receptor. The membranes were incubated with 0.05 nM ^125I-MIP-1β in a HEPES 25 mM/CaCl2 5 mM/MgCl2 1 mM buffer and various concentrations of the compounds of the invention. The amount of iodinated MIP-1β bound to the receptor was determined after filtration by the quantification of membrane associated radioactivity using the TopCount-NXT reader (Packard). Competition curves were obtained for compounds of the invention and the concentration of compound which displaced 50% of bound radioligand (IC50) was calculated

[4] = tested on: recombinant and non-replicative HIV virus coding for the firefly luciferase; assay: Inhibitory effect on HIV infection to MAGI-CCR5 cells (HIV-luciferase assay); type: cell-based; details: 10 μM of the compound; MAGI R5 cells (footnote b)
[5] = Human immunodeficiency virus 1, MAGI-CCR5, read-out: HIV-luciferase assay IC50
[6] = membranes of CHO cells expressing human CCR5, 0.05 nM 125I-MIP-1β, read-out: 125I-MIP-1β binding assay IC50

T1 sequence (P51681 whole entry): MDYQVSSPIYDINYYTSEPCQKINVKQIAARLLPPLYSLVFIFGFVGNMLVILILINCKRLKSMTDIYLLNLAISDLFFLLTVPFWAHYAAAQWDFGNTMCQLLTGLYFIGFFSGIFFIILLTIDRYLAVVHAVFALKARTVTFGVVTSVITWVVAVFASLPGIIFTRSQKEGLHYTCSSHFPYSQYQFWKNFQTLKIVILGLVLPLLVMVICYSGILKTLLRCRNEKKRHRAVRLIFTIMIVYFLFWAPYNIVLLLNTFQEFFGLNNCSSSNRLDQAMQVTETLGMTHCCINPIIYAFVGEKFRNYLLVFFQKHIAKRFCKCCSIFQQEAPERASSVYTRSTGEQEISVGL

IC50 (CCR5 receptor [3]; range over the group, read-out: IC50 (125I-MIP-1β binding), range stated in text for the listed compounds) [nM]	SMILES	EC50 (CCR5 receptor [1]) [nM]	IC50 [2, 5] [nM]	IC50 (CCR5 receptor [3]; [6]) [nM]	level of inhibition of luciferase activity compared to the inhibition induced by Rantes at 100 nM [4] [%^b]	level of calcium/aequorin response compared to the calcium/aequorin response of MIP-1β at 100 nM (CCR5 receptor [1]; 10 μM of the compound, activity too low for accurate EC50 calculation (footnote a))	IC50 ([2]; Human immunodeficiency virus 1, MAGI, read-out: IC50 (HIV infection of MAGI R5 cells)) [nM]
	Cc1ccc(NC(=O)CC2CCN(CCN(c3ccccc3)c3ccccc3)CC2)cc1 [Compound 8]	425	2160	13.3			
	CCCCc1ccc(NC(=O)CC2CCN(CCN(c3ccccc3)c3ccccc3)CC2)cc1 [Compound 27]	2330		167	31.5		
	O=C(CC1CCN(CCN(c2ccccc2)c2ccccc2)CC1)NC1CCCCC1 [Compound 17]	438		134	55.8		
	O=C(CC1CCN(CCN(c2ccccc2)c2ccccc2)CC1)NCc1ccccc1 [Compound 50]		1600	436		+9.5%^a	1600
	O=C(CC1CCN(CCN(c2ccccc2)c2ccccc2)CC1)Nc1ccc(Cl)cc1 [Compound 6]	1760	2050	116			
	O=C(CC1CCN(CCN(c2ccccc2)c2ccccc2)CC1)Nc1ccc(F)cc1 [Compound 4]	703	2470	70.8			
	C[C@H](CN(c1ccccc1)S(=O)(=O)Cc1ccccc1)N1CCC(CC(=O)Nc2ccc(F)cc2F)CC1 [Compound 98]	60.5	3.6	0.4			
	O=C(CC1CCN(CCN(c2ccccc2)c2ccccc2)CC1)NCc1ccc(Cl)cc1 [Compound 15]	4410	1440	106			
	COc1ccc(NC(=O)CC2CCN([C@H](C)CN(c3ccccc3)S(=O)(=O)Cc3ccccc3)CC2)cc1 [Compound 96]	70.6	3.9	0.4			
	COc1ccc(NC(=O)CC2CCN(CC[C@H](NC(=O)C3CCC(F)(F)CC3)c3ccccc3)CC2)cc1 [Compound 69]	36.4	2.7				
13.3 to 436	Cc1cc(NC(=O)CC2CCN([C@H](C)CN(c3ccccc3)S(=O)(=O)CC3CCC(F)(F)CC3)CC2)[nH]n1 [Compound 55]						
	COc1ccc(CNC(=O)CC2CCN(CCN(c3ccccc3)c3ccccc3)CC2)cc1 [Compound 16]	764		143	79.6		
